Data on three compounds can be found in patent US20090023696A1, “USE OF C3-C10 17ALFA-ESTERS OF 9,11-DEHYDROCORTEXOLONE AS ANTI-GONADOTROPHIC AGENTS” (COSMO BIO-TECHNOLOGIES SRL, priority 2005, published 2009).

Values joined by “and” are separate entries in the source; they are usually repeats but may differ in a detail not shown here. Equal values may be shown once. “Also recorded” adds a separate entry of the source. Marks after values point to notes of the source that are not given here.

The test system of the experiment is hypersecretion of gonadotrophin in the parabiotic rat. Kind of experiment: Hypersecretion of gonadotrophin induced by castration in parabiotic rats (ovarian weight). The experiment is classed as in vivo, Wistar rats. The settings on record: for Inhibition of ovarian weight (%): subcutaneously into castrated males; for anti-gonadotrophic effect (inhibitory effect on gonadotrophin secretion), in words: overall conclusion from Table 1. The method, then: The anti-gonadotrophic action was evaluated in an animal model by evaluation of the hypersecretion of the gonads induced by castration in parabiotic rats (Shipley E. G., in: Methods in Hormone Research, R. L Dorfman (ed.), vol. 2, pp 179-274. Academic Press, New York and London, 1962). The results of the inhibitory action of […] 17α-butyrate on the gonads are shown below in Table 1. Wistar rats of both sexes with body weights of 50-60 g were used. The males were castrated and, on the next day, were surgically united along the lateral body wall with intact females (parabiosis). In this experimental procedure, the castration of the males induces in them an immediate hypersecretion of gonadotrophin, which, on reaching the female via the parabiotic union, stimulates ovarian growth. […] Progesterone was used as a positive control and was administered by the same procedure, in doses of 0.5 and 2 mg. Additional groups of pairs including intact males/intact females and castrated males/intact females were treated with the vehicle only and used as a control. At the end of the treatment period, the pairs were killed and autopsies performed. The ovaries and uteruses of each female rate were isolated and weighed. The inhibitory action causing hypersecretion of gonadotrophin due to castration was evaluated via the capacity of the tested compound to oppose the increase of weight of the ovaries.

For the compound `CCCC(=O)O[C@]1(C(=O)CO)CCC2C3CCC4=CC(=O)CCC4(C)C3=CCC21C` (stereo partly drawn) [9,11-dehydrocortexolone 17α-butyrate], the “anti-gonadotrophic effect (inhibitory effect on gonadotrophin secretion), in words” value was “strong and significant dose-correlated inhibitory effect on gonadotrophin secretion; also recorded: comparable to that shown by comparable doses of progesterone”. The “Inhibition of ovarian weight (%)” value (daily dose 1 mg) is 59% and 59^a %. In addition, for the setting “daily dose 5 mg”, the “Inhibition of ovarian weight (%)” value was 96% and 96^a %.

Turning to `CCC(=O)O[C@]1(C(=O)CO)CC[C@H]2[C@@H]3CCC4=CC(=O)CC[C@]4(C)[C@H]3CC[C@@]21C` [cortexolone 17α-propionate, reference compound], the “anti-gonadotrophic effect (inhibitory effect on gonadotrophin secretion), in words” value is “no anti-gonadotrophic action at all”. Also, the “Inhibition of ovarian weight (%)” value (daily dose 1 mg) turned out to be 5%. Where the note is “daily dose 5 mg”, the “Inhibition of ovarian weight (%)” value worked out at 5%.

In the case of `CC(=O)[C@H]1CC[C@H]2[C@@H]3CCC4=CC(=O)CC[C@]4(C)[C@H]3CC[C@]12C` [progesterone, reference compound], the “Inhibition of ovarian weight (%)” value (daily dose 0.5 mg) is 38^b % and the “Inhibition of ovarian weight (%)” value (daily dose 2 mg) is given as 66^a %.
